# Experimental data published in ChEMBL document CHEMBL1201862, “PubChem BioAssay data set” (2004).
# Calls of active or inactive are those of the source.
# Legend:
# [1] = biological target: Beta-galactosidase (Escherichia coli, UniProt Q8VNN2); experiment: Dose response counterscreen for EBI2 assay utilizing the enzyme, b-galactosidase.; type: functional
# [2] = biological target: Prothrombin (Homo sapiens, UniProt P00734); experiment: Thrombin 1536 HTS Dose Response Confirmation. [Related pubchem assays: 1046 (Thrombin 1536 HTS; hits were confirmed in this assay)]; type: functional
# [3] = biological target: Mitogen-activated protein kinase 10 (Homo sapiens, UniProt P53779); experiment: Dose response biochemical screening assay for inhibitors of c-Jun N-Terminal Kinase 3 (JNK3). [Related pubchem assays: 746 ]
# [4] = system: Streptococcus sp. 'group A'; experiment: Streptococcus pyogenes SK(-)GAS viability under kanamycin – luminescence, BacTiterGlo, confirmation, counter-screen for streptokinase expression inhibitor project, dose response (AID 1900); type: functional, organism-based
# [5] = biological target: T1, Long-chain-fatty-acid--AMP ligase FadD28 (Mycobacterium tuberculosis, UniProt P9WQ59); experiment: Fluorescence polarization aasay to screen for inhibitors that compete for the binding of FadD28 to a bisubstrate Measured in Biochemical System Using Plate Reader - 2147-01_Inhibitor_Dose_CherryPick_Activity.; type: functional, Mycobacterium tuberculosis H37Rv
# T1 sequence (P9WQ59 whole entry): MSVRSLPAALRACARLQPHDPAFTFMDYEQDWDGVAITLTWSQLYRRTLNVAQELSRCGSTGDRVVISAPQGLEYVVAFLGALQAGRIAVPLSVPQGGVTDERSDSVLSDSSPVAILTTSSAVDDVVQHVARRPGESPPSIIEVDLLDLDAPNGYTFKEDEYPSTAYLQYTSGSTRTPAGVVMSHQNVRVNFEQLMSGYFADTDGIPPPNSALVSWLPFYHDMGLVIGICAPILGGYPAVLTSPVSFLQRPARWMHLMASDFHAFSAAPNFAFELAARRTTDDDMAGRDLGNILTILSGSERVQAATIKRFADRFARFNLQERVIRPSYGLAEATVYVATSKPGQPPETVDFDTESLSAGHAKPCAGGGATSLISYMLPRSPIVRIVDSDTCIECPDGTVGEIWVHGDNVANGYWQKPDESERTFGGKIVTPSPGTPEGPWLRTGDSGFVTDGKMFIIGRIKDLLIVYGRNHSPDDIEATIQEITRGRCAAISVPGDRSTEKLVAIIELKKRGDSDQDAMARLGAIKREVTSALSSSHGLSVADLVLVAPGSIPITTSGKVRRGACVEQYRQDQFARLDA
# [6] = biological target: T2, Streptokinase A (Streptococcus pyogenes serotype M1, UniProt P10520); experiment: viability-normalized secreted streptokinase activity reduction – plasminogen activation absorbance, OD405, dose response (AID 1914); type: functional, Streptococcus pyogenes M1 GAS;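 also: secreted streptokinase activity via plasminogen activation per viability signal from cell pellet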
# T2 sequence (P10520 whole entry): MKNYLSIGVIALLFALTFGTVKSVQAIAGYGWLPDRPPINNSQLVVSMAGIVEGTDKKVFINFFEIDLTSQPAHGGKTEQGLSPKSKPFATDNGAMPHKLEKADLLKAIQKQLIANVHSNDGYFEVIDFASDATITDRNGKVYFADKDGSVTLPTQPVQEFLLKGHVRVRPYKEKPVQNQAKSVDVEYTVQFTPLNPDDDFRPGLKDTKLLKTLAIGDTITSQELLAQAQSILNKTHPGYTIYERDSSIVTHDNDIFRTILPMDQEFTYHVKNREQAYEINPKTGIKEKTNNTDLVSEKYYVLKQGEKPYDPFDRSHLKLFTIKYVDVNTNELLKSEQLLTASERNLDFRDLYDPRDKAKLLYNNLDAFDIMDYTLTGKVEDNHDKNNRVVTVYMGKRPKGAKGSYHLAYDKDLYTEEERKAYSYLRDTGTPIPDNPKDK
# [7] = system: Streptococcus; experiment: GAS UMAA2166 growth inhibition – luminescence, BacTiterGlo, counter-screen for streptokinase expression inhibitor project, dose response (AID 1915); type: functional, organism-based;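 also: potency for reduction of bacterial viability or growth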
# [8] = biological target: T3, Estrogen receptor beta (Homo sapiens, UniProt Q92731);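 also: recombinant ER-beta bound to coactivator SRC1 peptide in presence of estradiol agonist; inhibitors block coactivator peptide binding and lower the FRET signal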
# [9] = biological target: T3, Estrogen receptor beta; experiment: blockers of SRC-3 recruitment to ERβ – biochemical, ELISA, streptavidin-HRP readout, orthogonal assay, confirmation (AID 1060)
# [10] = biological target: T4, Aryl hydrocarbon receptor (Homo sapiens, UniProt P35869); experiment: Luminescence-based cell-based high throughput dose response assay for activators of the Aryl Hydrocarbon Receptor (AHR). [Related pubchem assays: 2796 (Primary screen (AHR activators in singlicate)), 2845 (Confirmation screen (AHR activators in triplicate)), 434939 (Counterscreen (PXR activators in triplicate)), 2804 (Summary (AHR activators))]; type: ADME
# T4 sequence (P35869 whole entry): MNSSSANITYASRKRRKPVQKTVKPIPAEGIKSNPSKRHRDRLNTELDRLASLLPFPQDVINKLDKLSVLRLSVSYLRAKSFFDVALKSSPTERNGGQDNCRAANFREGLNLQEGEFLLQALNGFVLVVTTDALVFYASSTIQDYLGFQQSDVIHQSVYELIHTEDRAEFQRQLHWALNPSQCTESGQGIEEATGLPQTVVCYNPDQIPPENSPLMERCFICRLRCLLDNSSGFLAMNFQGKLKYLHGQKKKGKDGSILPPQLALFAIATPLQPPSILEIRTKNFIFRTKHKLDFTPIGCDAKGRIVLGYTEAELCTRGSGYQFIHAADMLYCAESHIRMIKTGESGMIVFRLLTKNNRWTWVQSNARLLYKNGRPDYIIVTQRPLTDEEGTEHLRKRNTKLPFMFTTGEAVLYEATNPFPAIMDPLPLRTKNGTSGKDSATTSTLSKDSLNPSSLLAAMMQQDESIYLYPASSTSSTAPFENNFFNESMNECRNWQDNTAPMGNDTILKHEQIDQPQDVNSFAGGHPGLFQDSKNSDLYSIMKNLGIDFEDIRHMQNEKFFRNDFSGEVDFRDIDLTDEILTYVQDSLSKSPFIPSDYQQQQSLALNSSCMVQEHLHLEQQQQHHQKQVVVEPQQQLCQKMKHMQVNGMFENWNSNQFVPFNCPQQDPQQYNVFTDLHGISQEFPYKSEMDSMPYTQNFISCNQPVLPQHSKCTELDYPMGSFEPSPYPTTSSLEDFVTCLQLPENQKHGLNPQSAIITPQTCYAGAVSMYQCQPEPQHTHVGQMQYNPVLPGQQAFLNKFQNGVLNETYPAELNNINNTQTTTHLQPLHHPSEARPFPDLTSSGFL
# [11] = HIV-1 Vif–A3G interaction blockers – biochemical, TR-FRET, GST-Vif 1-94, biotin-A3G peptide, dose response retest, primary screen (AID 1117319); type: functional;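 also: TR-FRET signal of purified GST-Vif binding a biotinylated A3G peptide; inhibitors lower the FRET signal by blocking Vif and A3G binding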
# [12] = biological target: Endoplasmic reticulum aminopeptidase 1 (Homo sapiens, UniProt Q9NZ08); experiment: inhibition of human ERAP1 enzyme activity – biochemical, cherry-pick, set 2, plate reader, dose response (AID 743314)
# [13] = biological target: T5, Corticotropin-releasing factor receptor 2/Corticotropin-releasing factor-binding protein (Homo sapiens, UniProt P24387+Q13324); experiment: activators of CRF receptor 2 with binding protein – uHTS hits, confirmation (AID 602473); type: functional; settings: read-out: EC50_Mean
# T5 sequence (Q13324 whole entry): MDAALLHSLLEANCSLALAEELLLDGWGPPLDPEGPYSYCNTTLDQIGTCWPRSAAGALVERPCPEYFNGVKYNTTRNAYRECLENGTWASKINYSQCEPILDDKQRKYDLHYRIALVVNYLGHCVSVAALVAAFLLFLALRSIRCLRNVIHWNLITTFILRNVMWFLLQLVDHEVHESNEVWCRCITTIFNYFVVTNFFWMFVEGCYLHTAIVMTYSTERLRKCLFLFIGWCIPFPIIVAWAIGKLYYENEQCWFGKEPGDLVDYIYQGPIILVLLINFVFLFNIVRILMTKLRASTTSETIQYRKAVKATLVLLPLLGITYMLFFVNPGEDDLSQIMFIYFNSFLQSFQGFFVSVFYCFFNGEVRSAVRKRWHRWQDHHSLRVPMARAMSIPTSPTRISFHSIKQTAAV
# T5 sequence (P24387 whole entry): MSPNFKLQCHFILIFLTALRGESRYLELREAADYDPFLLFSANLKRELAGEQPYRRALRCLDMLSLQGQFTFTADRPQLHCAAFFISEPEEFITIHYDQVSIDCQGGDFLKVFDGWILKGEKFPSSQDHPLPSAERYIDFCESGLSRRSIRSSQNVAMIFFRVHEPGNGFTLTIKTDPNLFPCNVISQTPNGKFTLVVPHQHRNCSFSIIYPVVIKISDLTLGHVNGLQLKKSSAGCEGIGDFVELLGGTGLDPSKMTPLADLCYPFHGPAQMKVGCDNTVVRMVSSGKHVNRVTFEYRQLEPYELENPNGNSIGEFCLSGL
# [14] = general mammalian cell viability loss – inhibitor set, cherry-pick, set 2, cytotoxicity control for miR-122 modulator project, dose response (AID 720697); type: functional, cell-based
# [15] = biological target: T6, Histone-lysine N-methyltransferase NSD2 (Homo sapiens, UniProt O96028); type: biochemical
# T6 sequence (O96028 whole entry): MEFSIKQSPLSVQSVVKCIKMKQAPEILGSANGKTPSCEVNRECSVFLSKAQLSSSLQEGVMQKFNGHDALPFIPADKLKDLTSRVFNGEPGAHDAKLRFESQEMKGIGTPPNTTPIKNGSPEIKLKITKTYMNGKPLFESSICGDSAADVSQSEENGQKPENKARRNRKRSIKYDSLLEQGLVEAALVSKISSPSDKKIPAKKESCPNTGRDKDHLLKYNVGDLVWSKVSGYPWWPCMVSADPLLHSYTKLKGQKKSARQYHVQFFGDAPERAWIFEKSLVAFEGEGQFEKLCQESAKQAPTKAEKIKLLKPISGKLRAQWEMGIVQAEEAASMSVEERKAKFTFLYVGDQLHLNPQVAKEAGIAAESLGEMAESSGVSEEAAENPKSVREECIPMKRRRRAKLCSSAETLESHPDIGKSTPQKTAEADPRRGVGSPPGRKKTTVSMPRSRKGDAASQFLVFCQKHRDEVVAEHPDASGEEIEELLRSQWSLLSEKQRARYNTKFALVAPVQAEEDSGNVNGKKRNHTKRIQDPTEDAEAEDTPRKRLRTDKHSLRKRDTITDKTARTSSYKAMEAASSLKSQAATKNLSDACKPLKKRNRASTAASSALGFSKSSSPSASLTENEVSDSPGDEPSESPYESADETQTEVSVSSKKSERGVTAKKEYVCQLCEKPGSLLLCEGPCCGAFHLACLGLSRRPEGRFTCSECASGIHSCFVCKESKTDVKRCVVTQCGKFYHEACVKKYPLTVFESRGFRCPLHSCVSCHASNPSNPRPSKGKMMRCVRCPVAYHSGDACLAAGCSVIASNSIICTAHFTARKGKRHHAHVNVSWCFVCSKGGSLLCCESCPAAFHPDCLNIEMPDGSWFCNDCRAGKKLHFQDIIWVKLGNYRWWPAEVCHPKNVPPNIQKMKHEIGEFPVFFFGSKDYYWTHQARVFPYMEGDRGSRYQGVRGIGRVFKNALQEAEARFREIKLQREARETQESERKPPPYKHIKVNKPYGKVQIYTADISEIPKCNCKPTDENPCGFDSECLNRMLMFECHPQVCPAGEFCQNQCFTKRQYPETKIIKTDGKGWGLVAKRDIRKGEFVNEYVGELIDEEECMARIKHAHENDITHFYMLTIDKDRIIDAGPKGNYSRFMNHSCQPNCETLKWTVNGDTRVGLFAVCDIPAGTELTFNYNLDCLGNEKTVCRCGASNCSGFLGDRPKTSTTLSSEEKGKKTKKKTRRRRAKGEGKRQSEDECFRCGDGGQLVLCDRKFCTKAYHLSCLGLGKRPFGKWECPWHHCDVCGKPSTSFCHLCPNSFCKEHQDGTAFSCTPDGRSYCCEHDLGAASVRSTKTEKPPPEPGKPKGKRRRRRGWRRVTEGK
# [16] = biological target: Nonstructural protein 1 (Influenza A virus, UniProt Q194T2); type: functional, Influenza A virus (A/California/07/2009(H1N1))
# Sequence of Nonstructural protein 1 (Q194T2 whole entry): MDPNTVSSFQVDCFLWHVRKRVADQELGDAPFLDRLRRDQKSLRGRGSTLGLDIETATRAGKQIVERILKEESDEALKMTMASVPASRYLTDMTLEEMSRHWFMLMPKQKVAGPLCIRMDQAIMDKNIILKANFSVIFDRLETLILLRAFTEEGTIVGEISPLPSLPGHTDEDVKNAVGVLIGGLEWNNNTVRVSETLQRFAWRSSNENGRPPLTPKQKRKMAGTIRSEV
# Sequence of Endoplasmic reticulum aminopeptidase 1 (Q9NZ08 whole entry): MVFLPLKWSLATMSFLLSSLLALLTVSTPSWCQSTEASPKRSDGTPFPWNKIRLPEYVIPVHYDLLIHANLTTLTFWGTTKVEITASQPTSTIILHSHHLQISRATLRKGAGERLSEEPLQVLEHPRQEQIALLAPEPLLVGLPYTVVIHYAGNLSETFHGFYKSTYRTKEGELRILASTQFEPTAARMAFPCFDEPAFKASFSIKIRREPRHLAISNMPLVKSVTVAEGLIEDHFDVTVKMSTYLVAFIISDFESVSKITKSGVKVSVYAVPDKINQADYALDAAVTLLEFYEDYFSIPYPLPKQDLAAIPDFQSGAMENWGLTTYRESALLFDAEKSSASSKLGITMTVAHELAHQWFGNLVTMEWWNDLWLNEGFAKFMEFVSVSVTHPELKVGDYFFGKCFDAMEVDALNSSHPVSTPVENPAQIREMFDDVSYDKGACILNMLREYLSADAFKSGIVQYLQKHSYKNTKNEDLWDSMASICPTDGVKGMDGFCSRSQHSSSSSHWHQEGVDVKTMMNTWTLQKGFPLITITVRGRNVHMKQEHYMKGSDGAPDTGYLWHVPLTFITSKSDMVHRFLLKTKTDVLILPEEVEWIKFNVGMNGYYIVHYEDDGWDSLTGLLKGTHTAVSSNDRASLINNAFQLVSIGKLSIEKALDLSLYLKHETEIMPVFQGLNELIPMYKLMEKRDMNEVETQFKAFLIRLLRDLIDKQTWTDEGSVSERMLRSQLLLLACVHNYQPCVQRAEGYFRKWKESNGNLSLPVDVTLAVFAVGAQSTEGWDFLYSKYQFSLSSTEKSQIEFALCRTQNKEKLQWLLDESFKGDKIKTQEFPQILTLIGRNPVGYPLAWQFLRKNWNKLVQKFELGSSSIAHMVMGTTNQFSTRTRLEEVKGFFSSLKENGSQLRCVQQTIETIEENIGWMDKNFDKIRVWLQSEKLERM
# Sequence of Beta-galactosidase (Q8VNN2 whole entry): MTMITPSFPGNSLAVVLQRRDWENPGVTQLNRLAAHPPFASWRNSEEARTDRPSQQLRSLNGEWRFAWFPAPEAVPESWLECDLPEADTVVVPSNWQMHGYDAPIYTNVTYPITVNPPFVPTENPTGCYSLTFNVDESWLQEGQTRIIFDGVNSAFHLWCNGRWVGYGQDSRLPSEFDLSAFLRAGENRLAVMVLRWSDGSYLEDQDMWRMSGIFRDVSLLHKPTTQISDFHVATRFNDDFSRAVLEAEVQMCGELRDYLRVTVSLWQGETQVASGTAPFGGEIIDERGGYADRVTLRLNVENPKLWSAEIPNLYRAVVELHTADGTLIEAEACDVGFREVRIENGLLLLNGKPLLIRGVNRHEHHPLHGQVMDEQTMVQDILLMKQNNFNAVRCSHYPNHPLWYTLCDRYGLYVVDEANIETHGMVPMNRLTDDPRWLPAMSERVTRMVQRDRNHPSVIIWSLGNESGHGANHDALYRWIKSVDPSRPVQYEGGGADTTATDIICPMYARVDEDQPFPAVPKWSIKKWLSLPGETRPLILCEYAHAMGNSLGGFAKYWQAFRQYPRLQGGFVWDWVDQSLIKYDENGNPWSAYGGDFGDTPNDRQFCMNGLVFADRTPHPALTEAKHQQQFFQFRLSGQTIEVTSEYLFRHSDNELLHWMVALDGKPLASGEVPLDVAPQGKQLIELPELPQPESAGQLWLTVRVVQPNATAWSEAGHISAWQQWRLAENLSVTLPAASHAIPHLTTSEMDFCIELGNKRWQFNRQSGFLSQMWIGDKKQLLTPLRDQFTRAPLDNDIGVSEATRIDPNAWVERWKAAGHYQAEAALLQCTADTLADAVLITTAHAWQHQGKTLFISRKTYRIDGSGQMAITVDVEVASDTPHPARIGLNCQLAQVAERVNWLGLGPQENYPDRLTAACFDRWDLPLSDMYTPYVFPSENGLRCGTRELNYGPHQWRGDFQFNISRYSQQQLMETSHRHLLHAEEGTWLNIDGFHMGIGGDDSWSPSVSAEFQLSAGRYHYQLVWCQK
# Sequence of Mitogen-activated protein kinase 10 (P53779 whole entry): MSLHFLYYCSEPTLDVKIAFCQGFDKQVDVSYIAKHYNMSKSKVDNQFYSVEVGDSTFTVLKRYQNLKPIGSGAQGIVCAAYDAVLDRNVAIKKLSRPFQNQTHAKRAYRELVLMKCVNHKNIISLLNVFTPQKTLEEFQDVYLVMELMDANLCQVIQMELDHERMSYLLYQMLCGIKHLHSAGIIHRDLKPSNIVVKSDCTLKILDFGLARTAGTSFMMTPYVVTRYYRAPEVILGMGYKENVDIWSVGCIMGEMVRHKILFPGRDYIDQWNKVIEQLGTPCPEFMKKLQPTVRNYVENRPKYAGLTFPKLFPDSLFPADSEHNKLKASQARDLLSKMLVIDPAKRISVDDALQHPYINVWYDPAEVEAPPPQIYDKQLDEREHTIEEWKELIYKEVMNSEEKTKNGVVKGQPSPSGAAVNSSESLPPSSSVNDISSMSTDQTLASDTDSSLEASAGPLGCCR
# T3 sequence (Q92731 whole entry): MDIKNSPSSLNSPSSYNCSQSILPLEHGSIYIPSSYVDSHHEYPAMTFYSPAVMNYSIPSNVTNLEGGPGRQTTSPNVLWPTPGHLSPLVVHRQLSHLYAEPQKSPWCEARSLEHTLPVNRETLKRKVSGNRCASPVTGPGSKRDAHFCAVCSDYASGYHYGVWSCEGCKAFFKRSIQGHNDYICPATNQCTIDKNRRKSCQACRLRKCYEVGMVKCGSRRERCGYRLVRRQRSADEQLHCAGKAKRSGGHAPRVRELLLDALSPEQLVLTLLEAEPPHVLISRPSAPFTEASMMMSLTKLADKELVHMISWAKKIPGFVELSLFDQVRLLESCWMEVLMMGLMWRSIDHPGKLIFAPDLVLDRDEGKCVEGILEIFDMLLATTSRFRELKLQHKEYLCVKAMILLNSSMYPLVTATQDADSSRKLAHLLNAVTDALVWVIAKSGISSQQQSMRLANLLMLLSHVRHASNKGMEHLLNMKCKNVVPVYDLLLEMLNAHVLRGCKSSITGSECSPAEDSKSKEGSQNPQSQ
smiles,measurement,setting,value
Cc1ccc(Cl)cc1N1CCN(C(=O)c2cc3c(O)nc4ccccc4c3n2C)CC1,IC50,[1],> 80 µM (inactive)
O=C(c1ccc(N2CCCCC2)c([N+](=O)[O-])c1)N(c1ccccn1)c1ccccn1,IC50,[2],> 50 µM (not active)
FC(F)(F)c1ccc(Oc2ccc3cc(Br)ccc3c2)nc1,IC50,[1],> 80 µM (inactive)
O=C(NCc1nc2ncc(Br)cc2[nH]1)c1ccccc1,IC50,[3],38.3 µM (not active)
Cc1ccnc(NC(=O)C2CCCN(S(=O)(=O)c3c[nH]cn3)C2)c1 (stereo unspecified),IC50,[2],> 50 µM (not active)
CCOC(=O)c1c(NS(=O)(=O)c2ccc(Br)cc2)sc2c1CCC2,EC50,[4],2.1 µM (active)
same,AC50,[5],> 100 µM (inactive)
same,EC50,[6],> 150 µM (not active)
same,EC50,[7],4.07 µM (active)
same,IC50,[8],> 50 µM (not active)
same,IC50,[9],> 50 µM (not active)
Cn1c(C(=O)N2CCC(C(N)=O)CC2)cc2cc(Cl)ccc21,EC50,[10],910 nM (active)
O=C(Nc1ccccc1N1CCOCC1)c1ccc2[nH]cnc2c1,IC50,[2],6.87 µM (active)
O=C(CN1C(=O)CSC1=O)Nc1ccccc1N1CCOCC1,IC50,[11],> 100 µM (active)
Cc1cc(C)c2cc(C(=O)N3CCC(C(=O)c4ccc(F)cc4)CC3)[nH]c2c1,IC50,[1],> 80 µM (inactive)
Cc1ccc2oc(=O)c3cnn(CC(=O)N4CCN(c5ccccn5)CC4)c3c2c1,IC50,[3],> 93.1 µM (not active)
O=c1oc2c(CN3CCN(CCO)CC3)c(O)ccc2cc1-c1ccccn1,AC50,[12],1.46 µM (active)
same,EC50,[13],6.05 µM (active)
Oc1ccc(O)c(C=NNC(=S)NC2CC3CC2C2C=CCC32)c1 (stereo unspecified),AC50,[5],> 100 µM (inactive)
COCC(=O)Nc1sc2c(c1C(=O)OC)C(C(=O)OC)CC2 (stereo unspecified),IC50,[11],> 100 µM (active)
COc1cccc(CNC(=O)[C@H]2N[C@H]3c4ccc(/C=C/c5ccccc5)c(=O)n4C[C@H]3[C@@H]2CO)c1,AC50,[12],16.2 µM (active)
C[C@@H]1CN([C@@H](C)CO)S(=O)(=O)c2ccc(C3=CCCCC3)cc2O[C@@H]1CN(C)C(=O)Nc1ccc2c(c1)OCO2,AC50,[14],502 nM (active)
CCN1[C@H](C(=O)Nc2nccs2)[C@@H](CO)[C@@H]2Cn3c(ccc(/C=C/c4ccccc4)c3=O)[C@@H]21,AC50,[12],19 µM (active)
O=[N+]([O-])c1ccccc1/C=C\C=N\N1CCN(c2ccccc2)CC1,AC50,[15],> 20 µM (inactive)
same,IC50,[16],59.2 µM (active)
Cc1ccc(/C(=N/Nc2nc3ccccc3s2)C2=C(O)c3ccccc3C2=O)cc1,AC50,[5],41.1 µM (active)
